Source: patent publication US20220267774A1, “METHODS AND COMPOSITIONS TO DIRECT BREAKDOWN OF INSULIN MRNA IN BENIGN FASHION” (CITY OF HOPE, priority 2019, published 2022)

Assays:
[1] = tested on: human beta cell line (1.1B4); assay: Insulin mRNA and DRiP protein expression in beta cell line under stress; assay type: cell-based; details: 1.1B4 cells stressed with TG
Source text: FIGS. 22A-B illustrates ex vivo cleavage of insulin mRNA in a cell line. FIG. 22A is a bar graph illustrating insulin mRNA expression change when beta cells are stressed with Thapsigargin (TG). FIG. 22B is a bar graph illustrating DRiP protein expression when beta cells are stressed with TG.
Ex vivo insulin mRNA expression and DRiP protein expression in beta cell line under stress. Ex vivo cleavage of insulin mRNA was examined in a 1.1B4 cell line. A human beta cell line (1.1B4) was stressed with Thapsigargin (chemical), with or without inhibition of IRE1, followed by analysis of the insulin mRNA expression and DRiP protein expression. […] But it is not enough to prevent an increase in DRiP expression. The protective SNP may have this effect ex vivo.

[2] = tested on: 293T cells transfected with INS-DRiP-GFP; assay: Effect of ER stress inducers on DRiP expression in INS-DRiP-GFP transfected cells; assay type: cell-based, human; details: western blot and flow cytometry
Source text: FIG. 8A is a western blot of 293T cell lysates (left to right) in nontransfected cells (NT), or cells transfected with INS-DRiP-GFP that were untreated (−), stimulated with thapsigargin (TG), or stimulated with tunicamycin (TM). The western blot in FIG. 8A is labeled using anti-GFP, anti-insulin, and anti-actin antibodies. FIG. 8B is a chart depicting densitometry analyses of the western blot in FIG. 8A analyzing the GFP (black bars) and insulin bands (gray bars) and shown as induction ratio±s.d. where the intensity of the nontreated cells was used as reference (right).
The effect of endoplasmic reticulum stress (ER stress) on translation initiation was also determined. Cells transfected with INS-DRiP-GFP were stimulated with the ER stress-inducers thapsigargin (TG) or tunicamycin (TM).

[3] = tested on: cells transfected with INS-DRiP-GFP vectors; assay: DRiP-GFP expression from INS-DRiP-GFP vectors; assay type: cell-based; details: both variants
Source text: Method: Two vectors of INS-DRiP-GFP (one of the protective genotype and one of the susceptible genotype) that express insulin and DRiP linked to GFP were created (FIG. 28). The vectors were transfected into cells, and GFP expression was observed when translation is started at the DRiP start codon.

[4] = biological target: HLA-DQ8trans (Homo sapiens, UniProt P01909+P01920, A45G/D89A/E77G/H199R/N214S/Y58L); details: cell-free; cited from earlier work
[5] = biological target: HLA-DQ2trans (Homo sapiens, UniProt P01909+P01920, A45G/A70V/C70Q/D89A/E106A/E183D/E77G/E98D/G63E/H199R/I129T/K197E/L107V/L178F/L74F/L98V/N214S/P84L/P87L/Q57E/Q76R/S185I/S97I/T103K/T109R/T172A/T49S/T60S/V73L/V78E/V99I/Y58L/Y62S/Y69I/Y79F); details: cell-free; cited from earlier work
[6] = tested on: HLA-A2; details: cited from earlier work
[7] = biological target: HLA-DQ8cis (Homo sapiens, UniProt P01909+P01920, A209T/A45G/C70Q/D89A/E183D/E77G/F237L/G63E/H199R/I129T/K197E/L178F/L74F/L98V/Q57E/Q76R/S185I/S97I/T217I/T49S/V73L/Y58L); details: cell-free; cited from earlier work
[8] = biological target: T1, HLA-DQ8trans (human, UniProt P01909 24-216; P01920 33-230, limits assumed); assay: cell-free HLA-DQ binding studies
T1 construct: Formed by the alpha-chain of HLA-DQ2 (DQA1*05:01) and the beta-chain of HLA-DQ8 (DQB1*03:02) (so in the source)
T1 MHC II alpha: not shown
T1 MHC II beta: not shown

[9] = biological target: T2, HLA-DQ2trans (human, UniProt P01909 24-216, limits assumed); assay: cell-free HLA-DQ binding studies
T2 construct: Formed by the alpha-chain of HLA-DQ8 (DQA1*03:01) and the beta-chain of HLA-DQ2 (DQB1*02:01) (so in the source)
T2 MHC II alpha: not shown
T2 MHC II beta: not shown

[10] = biological target: HLA-DQ2cis (human, UniProt P01909 24-216, limits assumed); assay: cell-free HLA-DQ binding studies
[11] = biological target: T3, HLA-DQ8cis (human, UniProt P01909 24-216; P01920 33-230, limits assumed); assay: cell-free HLA-DQ binding studies
T3 MHC II alpha: not shown
T3 MHC II beta: not shown

## C/C=C(/C)C(=O)O[C@H]1C(C)=C2[C@H]([C@@H]1OC(=O)CCCCCCC)[C@@](C)(OC(C)=O)C[C@H](OC(=O)CCC)[C@@]1(O)[C@H]2OC(=O)[C@@]1(C)O [TG, thapsigargin]
[1]
  DRiP protein expression: goes up
[1]; with or without IRE1 inhibition
  insulin RNA expression: goes down
[2]
  expression of DRiP polypeptide: increased
[3]
  effect on DRiP-GFP expression: increased in both variants

## MLYQHLLPL [INS-DRiP1-9]
[4]
  binding affinity to HLA-DQ8trans: strong binding affinity
[5]
  binding affinity to HLA-DQ2trans: not
[6]
  binding to HLA-A2: high affinity
[7]
  binding affinity to HLA-DQ8cis: strong binding affinity

## tunicamycin [TM]
[2]
  expression of DRiP polypeptide: increased by TG but not TM

B1: INS-DRiP1-9 epitope MLYQHLLPL (peptide)
peptide: MLYQHLLPL
notes: Synthetic counterpart of the N-terminal 9-mer of INS-DRiP; also called 9-mer peptide; INS-DRiP peptide fragment
[8]
  binding result: binds
[9]
  binding result: no binding
[10]
  binding result: no binding
[11]
  binding result: binds
